Reference: US9980943B2, “Methods of treating muscular dystrophy” (BOARD OF REGENTS OF THE NEVADA SYSTEM OF HIGHER EDUCATION, …, priority 2013, dated 2018)

Experiments:
Type in all cases: cell-based, mouse
[1] = tested on: α7 integrin (LacZ reporter in α7βgal+/− myoblasts); assay: Myoblast α7+/LacZ integrin FDG assay (Burkin assay in myoblasts, 96-well); details: α7+/LacZ myoblasts, 96-well
[2] = tested on: α7 integrin (LacZ reporter in α7+/LacZ myotubes); assay: Myotube α7 integrin FDG assay (Burkin assay in myotubes, 96-well); details: myotubes
[3] = tested on: β-galactosidase in CMV-LacZ C2C12 myotubes; assay: CMV-LacZ secondary screen in C2C12 myotubes (β-Gal stabilizing assay); details: C2C12 CMV-LacZ myotubes, fold relative to DMSO
Procedure, shortened: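 Dose-response runs at 0.5–40 μM (0.5, 1, 5, 10, 20, 40 μM; N=2 per point) used a clonal C2C12 line carrying CMV-LacZ. Cells were assayed as myoblasts or as differentiated myotubes, and β-galactosidase levels were read with the FDG fluorogenic substrate.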

[4] = tested on: β-galactosidase in CMV-LacZ C2C12 myoblasts; assay: CMV-LacZ secondary screen in C2C12 myoblasts (β-Gal stabilizing assay); details: CMV-LacZ C2C12 myoblasts
Procedure, shortened: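 C2C12 myoblasts stably carrying a linearized CMV-driven LacZ construct, clone chosen by β-gal level in the myoblast FDG assay. Compounds tested in 96-well dose-response at 0.5, 1, 5, 10, 20 and 40 μM, N=2 replicates per point, to detect β-gal stabilization.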

Row | Structure (SMILES) | Burkin Assay in Myoblasts, signal relative to DMSO ([1]; 0.5 uM) | Burkin Assay in Myoblasts, signal relative to DMSO ([1]; 1 uM) | Burkin Assay in Myoblasts, signal relative to DMSO ([1]; 5 uM) | Burkin Assay in Myoblasts, signal relative to DMSO ([1]; 10 uM) | Burkin Assay in Myoblasts, signal relative to DMSO ([1]; 20 uM) | Burkin Assay in Myoblasts, signal relative to DMSO ([1]; 40 uM) | Burkin Assay in Myotubes, α7 integrin LacZ reporter signal relative to DMSO ([2]; 0.5 uM) | Burkin Assay in Myotubes, α7 integrin LacZ reporter signal relative to DMSO ([2]; 1 uM) | Burkin Assay in Myotubes, α7 integrin LacZ reporter signal relative to DMSO ([2]; 5 uM) | Burkin Assay in Myotubes, α7 integrin LacZ reporter signal relative to DMSO ([2]; 10 uM) | Burkin Assay in Myotubes, α7 integrin LacZ reporter signal relative to DMSO ([2]; 20 uM) | Burkin Assay in Myotubes, α7 integrin LacZ reporter signal relative to DMSO ([2]; 40 uM) | CMV-LACZ in Myotubes, signal relative to DMSO ([3]; 0.5 uM) | CMV-LACZ in Myotubes, signal relative to DMSO ([3]; 1 uM) | CMV-LACZ in Myotubes, signal relative to DMSO ([3]; 5 uM) | CMV-LACZ in Myotubes, signal relative to DMSO ([3]; 10 uM) | CMV-LACZ in Myotubes, signal relative to DMSO ([3]; 20 uM) | CMV-LACZ in Myotubes, signal relative to DMSO ([3]; 40 uM) | CMV-LACZ in Myoblasts (β-galactosidase activity relative to DMSO) ([4]; 0.5 uM) | CMV-LACZ in Myoblasts (β-galactosidase activity relative to DMSO) ([4]; 1 uM) | further results
1 | Br.COc1ccc(C(=O)CN2CCCCC2)cc1 [MLS001004864-01] | 1.1396 | 1.193 | 1.109 | 1.023 | 1.105 | 0.8883 | 0.949 | 1.025 | 0.9784 | 0.9618 | 0.6075 | 0.376 | 0.9657 | 0.9610 | 1.0697 | 0.9501 | 0.9653 | 0.8884 | 1.2650 | 0.9288 | CMV-LACZ in Myoblasts (β-galactosidase activity relative to DMSO) ([4]; 5 uM): 1.2276; CMV-LACZ in Myoblasts (β-galactosidase activity relative to DMSO) ([4]; 10 uM): 1.0417; CMV-LACZ in Myoblasts (β-galactosidase activity relative to DMSO) ([4]; 20 uM): 1.2930; CMV-LACZ in Myoblasts (β-galactosidase activity relative to DMSO) ([4]; 40 uM): 0.9933
2 | COC(=O)c1ccc(N=Nc2ccccc2)cc1 [MLS001005712-01] | 1.1047 | 1.17 | 0.926 | 0.8783 | 0.8763 | 0.764 | 0.8704 | 1.173 | 0.9472 | 0.939 | 0.7885 | 0.7405 | 1.0684 | 1.0379 | 0.9623 | 0.8075 | 1.1133 | 1.3167 | 1.0188 | 1.2385 | CMV-LACZ in Myoblasts (β-galactosidase activity relative to DMSO) ([4]; 5 uM): 0.8934; CMV-LACZ in Myoblasts (β-galactosidase activity relative to DMSO) ([4]; 10 uM): 0.9125; CMV-LACZ in Myoblasts (β-galactosidase activity relative to DMSO) ([4]; 20 uM): 1.0241; CMV-LACZ in Myoblasts (β-galactosidase activity relative to DMSO) ([4]; 40 uM): 1.0230
3 | CC(C)(C)NC(=O)NC(=O)CN1CCN(Cc2ccccc2)CC1 [MLS001006302-01] | 1.123 | 0.9303 | 0.9535 | 1.172 | 0.973 | 0.9414 | 0.9822 | 0.9373 | 1.039 | 1.212 | 0.7835 | 1.078 | 1.0229 | 0.9143 | 0.9398 | 1.0122 | 0.9010 | 0.9720 | 0.9343 | 0.7663 | CMV-LACZ in Myoblasts (β-galactosidase activity relative to DMSO) ([4]; 5 uM): 0.8911; CMV-LACZ in Myoblasts (β-galactosidase activity relative to DMSO) ([4]; 10 uM): 1.0767; CMV-LACZ in Myoblasts (β-galactosidase activity relative to DMSO) ([4]; 20 uM): 0.9502; CMV-LACZ in Myoblasts (β-galactosidase activity relative to DMSO) ([4]; 40 uM): 0.7646
